# Results published in patent US20160009693A1, “HERBICIDAL COMPOUNDS” (SYNGENTA LIMITED, priority 2013, published 2016).
# Assays:
# Format in all cases: in vivo
# Details in all cases: applied at 1000 g/h, evaluated after 13 days
# [1] = test system: Alopecurus myosuroides (ALOMY); test: Herbicidal glasshouse test, pre-emergence, ALOMY
# Setaria faberi (SETFA) [2] = test: Herbicidal glasshouse test, pre-emergence, SETFA
# [3] = test system: Echinochloa crus-galli (ECHCG); test: Herbicidal glasshouse test, pre-emergence, ECHCG
# Method in brief: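 Echinochloa crus-galli seeds were sown in standard soil in pots and grown for one day in a glasshouse at 24/16° C. day/night, 14 hours light and 65% humidity. Pre-emergence spraying used an aqueous solution of the active ingredient in acetone/water (50:50) with 0.5% Tween 20. Damage was scored after 13 days on a five point scale.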
# Solanum nigrum (SOLNI) [4] = test: Herbicidal glasshouse test, pre-emergence, SOLNI
# Method in brief: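 Seeds of Solanum nigrum were sown in pots of standard soil and kept one day in a glasshouse at 24/16° C. day/night, 14 hours light and 65% humidity. For the pre-emergence treatment they were then sprayed with an aqueous solution of the active ingredient formulated in acetone/water (50:50) containing 0.5% Tween 20. Plant damage was rated after 13 days.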
# [5] = test system: Amaranthus retoflexus (AMARE); test: Herbicidal glasshouse test, pre-emergence, AMARE
# Method in brief: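 Amaranthus retoflexus seeds were sown in pots of standard soil and kept one day in a glasshouse at 24/16° C. (day/night), 14 hours light and 65% humidity. They were then sprayed pre-emergence with the active ingredient in acetone/water (50:50) containing 0.5% Tween 20. Plants grew under the same conditions, watered twice daily, and percentage damage was scored after 13 days.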
# [6] = test system: Ipomoea hederacea (IPOHE); test: Herbicidal glasshouse test, pre-emergence, IPOHE
# [7] = test system: Alopecurus myosuroides (ALOMY); test: Herbicidal glasshouse test, post-emergence, ALOMY
# Setaria faberi (SETFA) [8] = test: Herbicidal glasshouse test, post-emergence, SETFA
# Method in brief: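 Setaria faberi seeds were sown in standard soil in pots and grown for 8 days in a glasshouse at 24/16° C. day/night, 14 hours light and 65% humidity. The seedlings were then sprayed post-emergence with the active ingredient in acetone/water (50:50) containing 0.5% Tween 20. Afterwards they were kept under the same conditions, watered twice daily, and scored for percentage damage on a five point scale.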
# [9] = test system: Echinochloa crus-galli (ECHCG); test: Herbicidal glasshouse test, post-emergence, ECHCG
# Method in brief: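 Echinochloa crus-galli (ECHCG) seeds were sown in standard soil in pots and grown for 8 days in a glasshouse at 24/16° C. day/night, 14 hours light and 65% humidity. The young plants were then sprayed post-emergence with the active ingredient in acetone / water (50:50) containing 0.5% Tween 20. Damage was scored after 13 days.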
# Solanum nigrum (SOLNI) [10] = test: Herbicidal glasshouse test, post-emergence, SOLNI
# [11] = test system: Amaranthus retoflexus (AMARE); test: Herbicidal glasshouse test, post-emergence, AMARE
# Method in brief: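 Amaranthus retoflexus (AMARE) seeds were sown in pots of standard soil and grown in a glasshouse at 24/16° C. day/night, 14 hours light and 65% humidity for 8 days. The plants were then sprayed post-emergence with an aqueous solution of the active ingredient in acetone/water (50:50) with 0.5% Tween 20. Damage was scored after 13 days.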
# [12] = test system: Ipomoea hederacea (IPOHE); test: Herbicidal glasshouse test, post-emergence, IPOHE
Structure (SMILES),"PRE Application ALOMY, percentage damage (five point scale) [1]","PRE Application SETFA, percentage damage (five point scale) (Setaria faberi (SETFA) [2])","PRE Application ECHCG, percentage damage (five point scale) [3]","PRE Application SOLNI, percentage damage (five point scale) (Solanum nigrum (SOLNI) [4])","PRE Application AMARE, percentage damage (five point scale) [5]","PRE Application IPOHE, percentage damage (five point scale) [6]","POST Application ALOMY, percentage damage (five point scale) [7]","POST Application SETFA, percentage damage (five point scale) (Setaria faberi (SETFA) [8])","POST Application ECHCG, percentage damage (five point scale) [9]","POST Application SOLNI, percentage damage (five point scale) (Solanum nigrum (SOLNI) [10])","POST Application AMARE, percentage damage (five point scale) [11]","POST Application IPOHE, percentage damage (five point scale) [12]"
Cn1nnnc1NC(=O)c1nn(C)c(=O)n(Cc2ccccc2Cl)c1=O [Compound 1.059],5 (5=80-100%),2 (2=20-39%),5 (5=80-100%),5 (5=80-100%),5 (5=80-100%),5 (5=80-100%),5 (5=80-100%),4 (4=60-79%),4 (4=60-79%),5 (5=80-100%),5 (5=80-100%),5 (5=80-100%)
Cn1nnnc1NC(=O)c1nn(C)c(=O)n(Cc2ccccc2[N+](=O)[O-])c1=O [Compound 1.060],5 (5=80-100%),5 (5=80-100%),5 (5=80-100%),5 (5=80-100%),5 (5=80-100%),5 (5=80-100%),5 (5=80-100%),5 (5=80-100%),5 (5=80-100%),5 (5=80-100%),5 (5=80-100%),5 (5=80-100%)
Cn1nnnc1NC(=O)c1nn(C)c(=O)n(Cc2cc(F)ccc2F)c1=O [Compound 1.061],5 (5=80-100%),5 (5=80-100%),5 (5=80-100%),5 (5=80-100%),5 (5=80-100%),5 (5=80-100%),5 (5=80-100%),5 (5=80-100%),5 (5=80-100%),5 (5=80-100%),5 (5=80-100%),5 (5=80-100%)
Cn1nnnc1NC(=O)c1nn(C)c(=O)n(Cc2ccccc2C(F)(F)F)c1=O [Compound 1.062],5 (5=80-100%),5 (5=80-100%),5 (5=80-100%),5 (5=80-100%),5 (5=80-100%),5 (5=80-100%),5 (5=80-100%),5 (5=80-100%),5 (5=80-100%),5 (5=80-100%),5 (5=80-100%),5 (5=80-100%)
Cn1nnnc1NC(=O)c1nn(C)c(=O)n(Cc2cccc(F)c2)c1=O [Compound 1.063],5 (5=80-100%),4 (4=60-79%),5 (5=80-100%),5 (5=80-100%),5 (5=80-100%),5 (5=80-100%),5 (5=80-100%),4 (4=60-79%),5 (5=80-100%),5 (5=80-100%),5 (5=80-100%),5 (5=80-100%)
Cn1nnnc1NC(=O)c1nn(C)c(=O)n(Cc2ccc(F)c(F)c2)c1=O [Compound 1.064],5 (5=80-100%),1 (1=0-19%),5 (5=80-100%),5 (5=80-100%),5 (5=80-100%),5 (5=80-100%),2 (2=20-39%),2 (2=20-39%),5 (5=80-100%),5 (5=80-100%),5 (5=80-100%),5 (5=80-100%)
Cn1nnnc1NC(=O)c1nn(C)c(=O)n(Cc2c(F)cccc2F)c1=O [Compound 1.065],5 (5=80-100%),5 (5=80-100%),5 (5=80-100%),5 (5=80-100%),5 (5=80-100%),5 (5=80-100%),5 (5=80-100%),5 (5=80-100%),5 (5=80-100%),5 (5=80-100%),5 (5=80-100%),5 (5=80-100%)
Cn1nnnc1NC(=O)c1nn(C)c(=O)n(Cc2ccc(OC(F)F)cc2)c1=O [Compound 1.066],5 (5=80-100%),1 (1=0-19%),5 (5=80-100%),5 (5=80-100%),5 (5=80-100%),5 (5=80-100%),5 (5=80-100%),1 (1=0-19%),5 (5=80-100%),5 (5=80-100%),5 (5=80-100%),5 (5=80-100%)
Cn1nnnc1NC(=O)c1nn(C)c(=O)n(Cc2cccc(F)c2F)c1=O [Compound 1.067],5 (5=80-100%),4 (4=60-79%),5 (5=80-100%),5 (5=80-100%),5 (5=80-100%),5 (5=80-100%),5 (5=80-100%),4 (4=60-79%),5 (5=80-100%),5 (5=80-100%),5 (5=80-100%),5 (5=80-100%)
Cn1nnnc1NC(=O)c1nn(C)c(=O)n(Cc2ccc(Cl)c(Cl)c2)c1=O [Compound 1.068],3 (3=40-59%),1 (1=0-19%),2 (2=20-39%),5 (5=80-100%),5 (5=80-100%),1 (1=0-19%),3 (3=40-59%),1 (1=0-19%),4 (4=60-79%),5 (5=80-100%),5 (5=80-100%),5 (5=80-100%)
